Experimental data from patent US10450309B2, “Aryl sulfonamides as BLT1 antagonists” (Merck Sharp & Dohme Corp., priority 2015, dated 2019).

Target: T1, human BLT1 receptor (Homo sapiens, UniProt Q15722)
T1 construct: expressed in transfected cells; host or cells: HEK293
Test: BLT-1 cAMP Assay
Assay type: cell-based
Conditions: antagonist mode; HEK293 cells recombinantly expressing human BLT1; forskolin 4 μM and LTB4 2 nM
Method: The ability of compounds to antagonize the human BLT1 receptor was determined using a kit to measure changes in intracellular cyclic AMP levels (cAMP dynamic assay kit, Cisbio Cat. No. 62AM4PEC). HEK293 cells recombinantly expressing human BLT1, previously frozen in Recovery Medium (Life Technologies, Cat. No. 12648-010) were thawed and diluted into assay medium (HBSS (Hyclone SH 30268.01), 20 mM HEPES (Gibco 15630-106), 800 μM IBMX (Sigma 15879), 0.1% DTPA BSA (Perkin Elmer CR84-100)). The cell suspension was centrifuged at 200×g for 10 min and then resuspended in fresh assay medium to a density of 2.5×10^5 cells/mL. A Labcyte Echo 550 acoustic dispenser was used to transfer 25 nL of test compound dissolved in DMSO into the wells of a dry 384-well plate (Greiner 784075). All subsequent liquid additions were performed using a BIORAPTR (FRD; Beckman Coulter). Next, 5 μL of cell suspension was added and incubated for 20 min. at 37° C. and 5% CO2 in a humidified plastic tray. To test for agonist activity 5 μL of assay buffer containing forskolin (Sigma F-6886. 4 μM for BLT1) was added and incubated for 30 minutes at 37° C. and 5% CO2 in a humidified plastic tray. To test for antagonist activity 5 μL of assay buffer containing forskolin (Sigma F-6886. 4 μM for BLT1) and either LTB4 (Sigma Aldrich L0517; 2 nM BLT1) was added and incubated for 30 minutes at 37° C. and 5% CO2 in a humidified plastic tray.
The levels of cAMP were detected using the CisBio kit following the manufacturer's instructions: cAMP-d2 vial was reconstituted with distilled water and then diluted accordingly with conjugate & lysis buffer. 5 μL of cAMP-d2 working solution was added to all of the wells of the assay plate. cAMP-Cryptate vial was reconstituted with distilled water and then diluted accordingly with conjugate & lysis buffer. 5 μL of cAMP-Cryptate working solution were added to the assay plate. The assay plate was shaken for 3 minutes and incubated at room temperature for 45 minutes, then read on Perkin Elmer Envision. cAMP standard curve and fit data were plotted using a 4 parameter dose response curve fitting algorithm to fit curve. A 4-parameter curve fit (Max, min, log EC50 and slope) was used to transform fluorescent 665 nm/615 nm ratio signal to cAMP concentration. After normalization to treated and untreated controls, the percent effect of signal at each compound concentration was calculated. The plot of percent effect versus the log of compound concentration was fit with a 4-parameter concentration response equation to calculate EC50 values. Compound concentrations tested were 10 000, 3 333, 1 111, 370.4, 123.4, 41.2, 13.7, 4.6, 1.5 and 0.5 nM with 0.25% residual DMSO.

T1 sequence (Q15722 whole entry): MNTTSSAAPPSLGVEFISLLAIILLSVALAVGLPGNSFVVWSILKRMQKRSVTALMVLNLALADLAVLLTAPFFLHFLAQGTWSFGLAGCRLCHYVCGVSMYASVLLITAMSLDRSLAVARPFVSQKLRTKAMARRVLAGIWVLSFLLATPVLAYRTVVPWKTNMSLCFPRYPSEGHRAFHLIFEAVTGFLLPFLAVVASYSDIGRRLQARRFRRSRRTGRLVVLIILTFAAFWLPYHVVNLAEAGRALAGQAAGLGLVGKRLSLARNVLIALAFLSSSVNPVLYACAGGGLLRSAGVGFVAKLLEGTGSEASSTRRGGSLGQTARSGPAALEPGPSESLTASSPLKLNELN

EC50 [nM]	Compound
187	1,1,1-Trifluoro-N-(2-((3R,4S or 3S,4R)-4-hydroxy-3-((5-(5-methylthiazol-2-yl)pyridin-2-yl)methyl)chroman-7-yl)phenyl)methanesulfonamide [Example 6]
4	1,1,1-Trifluoro-N-(2-((3S,4R or 3R,4S)-4-hydroxy-3-((5-(5-methylthiazol-2-yl)pyridin-2-yl)methyl)chroman-7-yl)phenyl)methanesulfonamide [Example 7]
24	O=S(=O)(Nc1ccc(F)cc1-c1ccc2c(c1)OC[C@H](Cc1ccc(-c3cncs3)cn1)[C@H]2O)C(F)(F)F (racemic) [Example 8, 1,1,1-trifluoro-N-{4-fluoro-2-[(rac-trans) 4-hydroxy-3-{[5-(1,3-thiazol-5-yl)pyridin-2-yl]methyl}-3,4-dihydro-2H-chromen-7-yl]phenyl}methanesulfonamide]
82	O=S(=O)(Nc1ccccc1-c1ccc2c(c1)OC[C@@H](Cc1ccc(-c3cncs3)cn1)[C@@H]2O)C(F)(F)F (single isomer, unassigned) [Example 1, 1,1,1-Trifluoro-N-(2-((3R,4S or 3S,4R)-4-hydroxy-3-((5-(thiazol-5-yl)pyridin-2-yl)methyl)chroman-7-yl)phenyl)methanesulfonamide]
8	O=S(=O)(Nc1ccccc1-c1ccc2c(c1)OC[C@H](Cc1ccc(-c3cncs3)cn1)[C@H]2O)C(F)(F)F (single isomer, unassigned) [Example 2, 1,1,1-Trifluoro-N-(2-((3S,4R or 3R,4S)-4-hydroxy-3-((5-(thiazol-5-yl)pyridin-2-yl)methyl)chroman-7-yl)phenyl)methanesulfonamide]
5	Cn1cc(-c2ccc(C[C@H]3COc4cc(-c5ccccc5NS(=O)(=O)C(F)(F)F)ccc4[C@@H]3O)nc2)cn1 (single isomer, unassigned) [Example 3, 1,1,1-Trifluoro-N-(2-((3S,4R or 3R,4S)-4-hydroxy-3-((5-(1-methyl-1H-pyrazol-4-yl)pyridin-2-yl)methyl)chroman-7-yl)phenyl)methanesulfonamide]
140	Cn1cc(-c2ccc(C[C@@H]3COc4cc(-c5ccccc5NS(=O)(=O)C(F)(F)F)ccc4[C@H]3O)nc2)cn1 (single isomer, unassigned) [Example 4, 1,1,1-Trifluoro-N-(2-((3R,4S or 3S,4R)-4-hydroxy-3-((5-(1-methyl-1H-pyrazol-4-yl)pyridin-2-yl)methyl)chroman-7-yl)phenyl)methanesulfonamide]
294	Cn1nccc1-c1ccc(C[C@@H]2COc3cc(-c4ccccc4NS(=O)(=O)C(F)(F)F)ccc3[C@H]2O)nc1 (single isomer, unassigned) [Example 5, 1,1,1-Trifluoro-N-(2-((3,4-trans)-4-hydroxy-3-((5-(1-methyl-1H-pyrazol-5-yl)pyridin-2-yl)methyl)chroman-7-yl)phenyl)methanesulfonamide]
107	O=S(=O)(Nc1ccccc1-c1ccc2c(c1)OC[C@@H](Cc1ccc(-c3cscn3)cn1)[C@@H]2O)C(F)(F)F (single isomer, unassigned) [Example 9, 1,1,1-Trifluoro-N-(2-((3,4-trans)-4-hydroxy-3-((5-(thiazol-4-yl)pyridin-2-yl)methyl)chroman-7-yl)phenyl)methanesulfonamide]
20	O=S(=O)(Nc1ccccc1-c1ccc2c(c1)OC[C@@H](Cc1ccc(-c3nccs3)cn1)[C@@H]2O)C(F)(F)F (single isomer, unassigned) [Example 10, 1,1,1-Trifluoro-N-(2-((3,4-trans)-4-hydroxy-3-((5-(thiazol-2-yl)pyridin-2-yl)methyl)chroman-7-yl)phenyl)methanesulfonamide]
16	O=S(=O)(Nc1ccccc1-c1ccc2c(c1)OC[C@@H](Cc1ccc(-c3nccs3)cn1)[C@@H]2O)C(F)(F)F (single isomer, unassigned) [Example 11, 1,1,1-Trifluoro-N-(2-((3,4-trans)-4-hydroxy-3-((5-(thiazol-2-yl)pyridin-2-yl)methyl)chroman-7-yl)phenyl)methanesulfonamide]
4	O=S(=O)(Nc1ccccc1-c1ccc2c(c1)OC[C@@H](Cc1ccc(-c3cscn3)cn1)[C@@H]2O)C(F)(F)F (single isomer, unassigned) [Example 12, 1,1,1-Trifluoro-N-(2-((3,4-trans)-4-hydroxy-3-((5-(thiazol-4-yl)pyridin-2-yl)methyl)chroman-7-yl)phenyl)methanesulfonamide]
4	O=S(=O)(Nc1ccc(F)cc1-c1ccc2c(c1)OC[C@H](Cc1ccc(-c3cncs3)cn1)[C@H]2O)C(F)(F)F (single isomer, unassigned) [Example 13, 1,1,1-trifluoro-N-{4-fluoro-2-[(3S,4R or 3R,4S)-4-hydroxy-3-{[5-(1,3-thiazol-5-yl)pyridin-2-yl]methyl}-3,4-dihydro-2H-chromen-7-yl]phenyl}methane-sulfonamide]
31	O=S(=O)(Nc1ccc(F)cc1-c1ccc2c(c1)OC[C@@H](Cc1ccc(-c3cncs3)cn1)[C@@H]2O)C(F)(F)F (single isomer, unassigned) [Example 14, 1,1,1-trifluoro-N-{4-fluoro-2-[(3R,4S or 3S,4R)-4-hydroxy-3-{[5-(1,3-thiazol-5-yl)pyridin-2-yl]methyl}-3,4-dihydro-2H-chromen-7-yl]phenyl}methane-sulfonamide]
